Experimental data as given in patent US20030219400A1 (priority 2002, published 2003).

Experiments:
PLDS patients = assay type: in vivo, human
Protocol: An orally administered checklist monitored symptoms; sequential VCS testing was performed. […] No antibiotics or other therapeutic interventions were administered during the study. Diagnostic parameters used by referring physicians included a history of erythema chronicum migrans (ECM) rash, ELISA assay, Borrelia burgdorferi Western blot, LUAT assay, PCR, CSF antibodies to B. burgdorferi and culture. Patients with a clinical diagnosis of PLDS but without a positive serologic test were included at the discretion of the attending physician.

[1] = test system: macrophage release of pro-inflammatory cytokines, including TNF and IL1B; conditions: intraventricular instillation; cited from earlier work
SBS patients = conditions: human, in vivo

## CCc1ccc(CCOc2ccc(CC3SC(=O)NC3=O)cc2)nc1 (stereo not shown) [pioglitazone]
PLDS patients; 45 mg daily for 10 days
  adverse effects from pioglitazone, including hypoglycemia or abnormal liver function tests: No patients had adverse effects
PLDS patients; of 241 patients receiving pioglitazone, CSM added on day 6
  patients with significant intensification of symptoms, not severe enough to stop treatment: 5 patients

## Ser-Tyr-Ser-Met-Glu-His-Phe-Arg-Trp-Gly-Lys-Pro-Val [αMSH]
[1]
  macrophage release of pro-inflammatory cytokines, including TNF and IL1B: down-regulation of macrophage release of pro-inflammatory cytokines

## cholestyramine [CSM]
SBS patients
  other complications of therapy: No other significant complications of therapy were noted
